IC50 and Ki data for 17 compounds are collected here from patent publication US8415376B2, “Inhibitors of PI3 kinase” (Amgen Inc., priority 2008, dated 2013).

Each structure is given as a SMILES string.

The target of experiment [1] is T1, PI3Kα (Homo sapiens, UniProt P42336).
T1 construct: Full length p110 subunits of PI3K α, β and δ, N-terminally labeled with polyHis tag; polyHis (N); made in house; host or cells: Sf9 insect cells (baculovirus)
Briefly: In vitro PI3 kinase enzyme assay (PI3K ATP loss), alpha. In kind it is biochemical. To be noted: average if run more than once; read-out: ATP Loss (PBKα) IC50 μM (Avg).
Description: (§1) Full length p110 subunits of PI3K α, β and δ, N-terminally labeled with polyHis tag, can be co-expressed with p85 with Baculo virus expression vectors in sf9 insect cells. P110/p85 heterodimers can be purified by sequential Ni-NTA, Q-HP, Superdex-100 chromatography. Purified α, β and δ isozymes can be stored at −20° C. in 20 mM Tris, pH 8, 0.2M NaCl, 50% glycerol, 5 mM DTT, 2 mM Na cholate. […] The γ isozyme can be purified by sequential Ni-NTA, Superdex-200, Q-HP chromatography. The γ isozyme can be stored frozen at −80° C. in NaH2PO4, pH 8, 0.2M NaCl, 1% ethylene glycol, 2 mM β-mercaptoethanol.
(§2) In Vitro PI3 Kinase Enzyme Assays (PI3K Atploss)
(§3) PI3K enzyme assays (alpha, beta, delta and gamma) can be performed in 25 μL with the above final concentrations of components in white polyproplyene plates. Phosphatidyl inositol phosphoacceptor, PtdIns(4,5)P2 (eg. P4508) can be obtained from Echelon Biosciences, Salt Lake City, Utah. […] Test compounds can be dissolved in DMSO and diluted with three-fold serial dilutions. The compound in DMSO (1 μL) may be added per test well, and the inhibition relative to reactions containing no compound, with and without enzyme can be determined After assay incubation at RT, the reaction can be stopped and residual ATP can be determined by addition of an equal volume of a commercial ATP bioluminescence kit (Perkin Elmer EasyLite, Perkin Elmer, Waltham, Mass.) according to the manufacturer's instructions, and detected using an Analyst GT luminometer.

Experiment [2] concerns phosphorylation of Akt at Ser473. Description: Cell-based phospho-Akt Ser473 assay (HCT116 cell). To be noted: HCT 116 human colon carcinoma cells, IGF-1 stimulated; average. Put shortly:
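HCT116 human colon carcinoma cells, 16,000/well, were treated with compounds in a 10-point 3-fold series for 2 h at 37 °C in McCoy's with 0.1% BSA. They were then stimulated with IGF-1 at 100 ng/ml for 15 min. Phospho-Akt Ser473 in lysates was measured by MSD electrochemiluminescent sandwich immunoassay, and IC50 came from dose-response.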

In the next experiment the target is T2, PI3Kβ (Homo sapiens, UniProt P42338).
T2 construct: Full length p110 subunits of PI3K α, β and δ, N-terminally labeled with polyHis tag; polyHis (N); made in house; host or cells: Sf9 insect cells (baculovirus)
Description: In vitro PI3 kinase enzyme assay (PI3K ATP loss), beta. To be noted: average if run more than once. In kind it is biochemical.

In experiment [3] the target is T1, PI3Kα. Briefly: In vitro PI3K AlphaScreen assay. In kind it is biochemical. To be noted: average if run more than once.
Description: In Vitro PI3K Alphascreen® Assay
The PI3K AlphaScreen® assay (PerkinElmer, Waltham, Mass.) measures the activity of a panel of four phosphoinositide 3-kinases: PI3Kα, PI3Kβ, PI3Kγ, and PI3Kδ. Each of these enzymes phosphorylates the 3′-hydroxyl group on phosphatidylinositiol (4,5)-bisphosphate (PIP2) to produce phosphatidylinositol (3,4,5)-trisphosphate (PIP3). This phosphorylation activity is measured using a GST-tagged PIP3 binding protein (Echelon Biosciences, Salt Lake City, Utah), an anti-GST-tagged Acceptor bead, and streptavidin-Donor bead. […] In the absence of this interaction, proximity of the Donor and Acceptor beads is decreased, producing a loss of luminescent signal which is inversely proportional to PI3K activity.
The enzyme reaction buffer is made using sterile water (Baxter, Deerfield, Ill.) and 50 mM Tris HCl pH 7, 14 mM MgCl2, 2 mM sodium cholate, and 100 mM NaCl. 2 mM DTT is added fresh the day of the experiment. The AlphaScreen® reaction buffer is made using sterile water and 10 mM Tris HCl pH 7.5, 150 mM NaCl, 0.10% Tween 20, and 30 mM EDTA. 1 mM DTT is added fresh the day of the experiment.
The source plates for this assay are 384-well Greiner clear polypropylene plates containing test compounds at 5mM and diluted 1:2 over 22 points. […] Source plates are replicated into 384-well Optiplates (PerkinElmer, Waltham, Mass.), 0.5 μL/well, to make assay-ready plates.
The different PI3K isoforms are each diluted in enzyme reaction buffer to 2× working solutions. […] Two different 2× substrate solutions are made in enzyme reaction buffer. In one solution, PI(4,5)P2 (Echelon Biosciences, Salt Lake City, Utah) is diluted to 10 μM and ATP is diluted to 20 μM. This solution is used in the assays testing PI3Kα and PI3Kβ. In a second solution, PI(4,5)P2 is diluted to 10 μM and ATP is diluted to 8 μM. This solution used in the assays testing PI3Kγ and PI3Kδ.
The AlphaScreen® reaction solutions are made using beads from the anti-GST AlphaScreen® kit (PerkinElmer, Waltham, Mass.). Two solutions are made in Alphascreen reaction buffer to 4× working concentrations. In one solution, biotinylated-IP4 (Echelon Biosciences, Salt Lake City, Utah) is diluted to 40 nM and streptavadin-Donor Beads are diluted to 80 μg/mL. In the second solution, PIP3-binding protein (Echelon Biosciences, Salt Lake City, Utah) is diluted to 40 nM and anti-GST-Acceptor Beads are diluted to 80 μg/mL. 10 μL/well of enzyme reaction buffer is added to Column 24 of the assay ready plates in place of enzyme. This is done for plates in the PI3Kα, β, and 67 assays.
Using a 384-well dispensing Multidrop (Titertek, Huntsville, Ala.), 10 μL/well of 2× enzyme (PI3Kα, β, δ) is added to Columns 1-23 of the appropriate assay ready plates (for PI3Kγ 10 μL is added to Columns 1-24). 10 μL/well of the appropriate substrate solution (the solution with 20 μM ATP for PI3Kα and β assays, and the solution with 8 μM ATP for PI3Kγ and δ assays) is then added to Columns 1-24 of the plates. Plates are then incubated at room temperature for 20 minutes.
In the dark, 10 μL/well of the Donor Bead solution is added to Columns 1-24 of the plates to quench the enzyme reaction. The plates are incubated at room temperature for 30 minutes. Still in the dark, 10 μL/well of the Acceptor Bead solution is also added to Columns 1-24 of the plates. The plates are then incubated in the dark for 1.5 hours. The plates are read on an Envision Multilabel Plate Reader (PerkinElmer, Waltham, Mass.) with a 680 nm excitation filter and a 520-620 nm emission filter.

T1 sequence (P42336 whole entry): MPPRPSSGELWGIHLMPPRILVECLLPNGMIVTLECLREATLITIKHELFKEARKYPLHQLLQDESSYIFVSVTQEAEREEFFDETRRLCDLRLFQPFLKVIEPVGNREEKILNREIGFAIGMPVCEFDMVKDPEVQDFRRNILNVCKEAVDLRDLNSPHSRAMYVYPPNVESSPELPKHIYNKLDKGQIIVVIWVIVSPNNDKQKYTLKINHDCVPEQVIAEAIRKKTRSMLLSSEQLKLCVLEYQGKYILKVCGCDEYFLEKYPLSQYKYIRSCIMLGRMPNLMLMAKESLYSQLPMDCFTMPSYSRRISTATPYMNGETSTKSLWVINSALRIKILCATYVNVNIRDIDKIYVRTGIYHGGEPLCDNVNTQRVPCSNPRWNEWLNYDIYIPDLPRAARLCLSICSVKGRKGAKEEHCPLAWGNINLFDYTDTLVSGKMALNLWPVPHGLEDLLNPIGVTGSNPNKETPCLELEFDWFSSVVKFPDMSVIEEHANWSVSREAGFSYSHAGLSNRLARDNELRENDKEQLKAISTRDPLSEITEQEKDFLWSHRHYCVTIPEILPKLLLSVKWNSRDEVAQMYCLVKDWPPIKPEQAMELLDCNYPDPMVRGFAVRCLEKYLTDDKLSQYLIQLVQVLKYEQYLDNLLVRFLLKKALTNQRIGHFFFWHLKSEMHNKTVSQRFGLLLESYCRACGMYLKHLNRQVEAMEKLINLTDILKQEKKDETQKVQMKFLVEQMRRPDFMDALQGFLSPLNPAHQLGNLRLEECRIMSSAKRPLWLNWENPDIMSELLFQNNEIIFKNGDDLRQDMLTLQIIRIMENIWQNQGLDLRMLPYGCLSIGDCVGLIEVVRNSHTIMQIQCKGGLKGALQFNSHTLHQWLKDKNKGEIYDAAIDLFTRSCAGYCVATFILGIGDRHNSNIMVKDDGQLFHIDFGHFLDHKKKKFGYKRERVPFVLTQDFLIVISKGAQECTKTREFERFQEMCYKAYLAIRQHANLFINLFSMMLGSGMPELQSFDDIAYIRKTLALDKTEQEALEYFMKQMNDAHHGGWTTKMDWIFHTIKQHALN
T1 sequence (P27986 whole entry partner): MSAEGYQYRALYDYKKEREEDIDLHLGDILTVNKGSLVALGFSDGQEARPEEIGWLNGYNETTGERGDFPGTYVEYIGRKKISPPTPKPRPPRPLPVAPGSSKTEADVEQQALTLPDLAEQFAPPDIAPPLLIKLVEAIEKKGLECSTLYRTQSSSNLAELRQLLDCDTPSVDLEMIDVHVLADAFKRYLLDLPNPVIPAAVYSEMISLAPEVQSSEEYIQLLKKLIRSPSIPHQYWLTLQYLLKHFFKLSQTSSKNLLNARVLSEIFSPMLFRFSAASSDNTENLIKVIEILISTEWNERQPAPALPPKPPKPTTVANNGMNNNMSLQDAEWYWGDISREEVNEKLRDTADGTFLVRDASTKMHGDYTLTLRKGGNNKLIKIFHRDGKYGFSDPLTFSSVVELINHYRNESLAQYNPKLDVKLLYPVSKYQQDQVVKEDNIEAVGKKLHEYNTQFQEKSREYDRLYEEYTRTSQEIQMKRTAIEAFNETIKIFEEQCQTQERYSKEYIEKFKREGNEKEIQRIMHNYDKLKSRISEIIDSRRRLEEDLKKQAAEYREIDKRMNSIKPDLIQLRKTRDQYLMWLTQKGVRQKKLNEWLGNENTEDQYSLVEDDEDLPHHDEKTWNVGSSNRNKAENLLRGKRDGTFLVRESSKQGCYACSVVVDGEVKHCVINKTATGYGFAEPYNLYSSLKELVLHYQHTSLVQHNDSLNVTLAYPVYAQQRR
T2 sequence (P42338 whole entry): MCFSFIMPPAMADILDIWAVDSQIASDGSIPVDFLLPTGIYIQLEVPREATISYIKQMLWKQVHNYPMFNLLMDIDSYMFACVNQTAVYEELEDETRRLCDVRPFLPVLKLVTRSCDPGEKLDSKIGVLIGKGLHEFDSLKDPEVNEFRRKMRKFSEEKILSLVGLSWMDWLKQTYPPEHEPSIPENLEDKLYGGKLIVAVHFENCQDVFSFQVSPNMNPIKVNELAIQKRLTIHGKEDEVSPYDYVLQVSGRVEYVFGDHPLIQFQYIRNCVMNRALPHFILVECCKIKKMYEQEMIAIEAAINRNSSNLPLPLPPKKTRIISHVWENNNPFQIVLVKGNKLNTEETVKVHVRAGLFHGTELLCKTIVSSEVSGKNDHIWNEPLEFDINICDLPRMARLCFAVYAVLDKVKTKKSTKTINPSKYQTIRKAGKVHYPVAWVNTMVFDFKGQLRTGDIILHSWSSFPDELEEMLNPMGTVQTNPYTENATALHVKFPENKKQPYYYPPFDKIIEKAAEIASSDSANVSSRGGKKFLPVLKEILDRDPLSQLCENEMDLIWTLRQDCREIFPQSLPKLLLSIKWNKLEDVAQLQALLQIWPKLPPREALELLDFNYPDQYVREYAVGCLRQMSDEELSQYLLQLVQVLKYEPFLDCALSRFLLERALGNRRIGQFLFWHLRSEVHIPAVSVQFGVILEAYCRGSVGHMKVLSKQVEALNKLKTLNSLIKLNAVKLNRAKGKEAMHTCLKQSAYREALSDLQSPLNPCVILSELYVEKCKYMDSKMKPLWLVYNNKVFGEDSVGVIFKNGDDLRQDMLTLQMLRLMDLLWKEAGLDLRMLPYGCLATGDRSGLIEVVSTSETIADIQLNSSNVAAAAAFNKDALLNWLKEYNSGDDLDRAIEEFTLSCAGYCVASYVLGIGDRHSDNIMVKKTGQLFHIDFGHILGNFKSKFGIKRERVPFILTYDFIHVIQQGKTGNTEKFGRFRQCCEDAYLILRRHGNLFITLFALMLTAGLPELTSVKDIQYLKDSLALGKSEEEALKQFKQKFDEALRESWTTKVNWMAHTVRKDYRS
T2 sequence (P27986 whole entry partner): as the sequence (P27986 whole entry partner) above
Description for PI3Kβ: as §1, §2, §3

As for `Oc1cc(-c2ccc3nccc(N4CCOCC4)c3c2)cnc1Cl` [Example 19, 2-chloro-5-(4-(4-morpholinyl)-6-quinolinyl)-3-pyridinol], the IC50 (as a rule, the concentration that gives 50% inhibition) on PI3Kα [1] was 0.0258 µM; in experiment [2], 0.311 µM; on PI3Kβ, 0.644 µM.
Regarding `O=S(=O)(Nc1cc(-c2ccc3nccc(N4CCOCC4)c3c2)cnc1Cl)c1c(Cl)cccc1Cl` [Example 34, 2,6-dichloro-N-(2-chloro-5-(4-(4-morpholinyl)-6-quinolinyl)-3-pyridinyl)benzenesulfonamide], the IC50 at PI3Kα [1] amounted to 0.0065 µM; in experiment [2], 0.0376 µM; at PI3Kβ, 0.0359 µM.
Taken in the same sequence, the figures for `CS(=O)(=O)Nc1cc(-c2ccc3nccc(Cl)c3c2)cnc1Cl` [Example 9, N-(2-chloro-5-(4-chloro-6-quinolinyl)-3-pyridinyl)methanesulfonamide] were 0.0142 µM, 2.06 µM and 0.052 µM.
For the compound `COc1ccc(CNc2cnc3ccc(-c4cnc(Cl)c(NS(=O)(=O)c5ccc(F)cc5)c4)cc3n2)cc1` [Example 63, N-(2-chloro-5-(3-((4-methoxybenzyl)amino)-6-quinoxalinyl)-3-pyridinyl)-4-fluorobenzenesulfonamide], the IC50 turned out to be 0.0056 µM on PI3Kα [1], 0.158 µM in experiment [2] and 0.0502 µM on PI3Kβ.
Regarding `O=S(=O)(Nc1cc(-c2ccc3nccc(N4CCOCC4)c3c2)cnc1Cl)c1ccccc1F` [Example 32, N-(2-chloro-5-(4-(4-morpholinyl)-6-quinolinyl)-3-pyridinyl)-2-fluorobenzenesulfonamide], the IC50 at PI3Kα [1] worked out at 0.005 µM; in experiment [2], 0.0117 µM; at PI3Kβ, 0.0248 µM.
For `Nc1nc2ccc(-c3cnc(Cl)c(NS(=O)(=O)c4ccc(F)cc4)c3)cc2[nH]c1=O` [Example 43, N-(5-(2-amino-3-oxo-3,4-dihydro-6-quinoxalinyl)-2-chloro-3-pyridinyl)-4-fluorobenzenesulfonamide], the half-maximal inhibitory concentration (IC50) stood at 0.0169 µM on PI3Kα [1], 5.04 µM in experiment [2] and 0.0648 µM on PI3Kβ.
Take `CS(=O)(=O)Nc1cc(-c2ccc3nccc(N4CCOCC4)c3c2)cnc1Cl` [Example 11, N-(2-chloro-5-(4-(4-morpholinyl)-6-quinolinyl)-3-pyridinyl)methanesulfonamide]: the IC50 was 0.0458 µM at PI3Kα [1], 0.0501 µM in experiment [2] and 0.156 µM at PI3Kβ.
Consider `COc1ccc(S(=O)(=O)Nc2cc(-c3ccc4nc(NC(C)=O)ccc4c3)cnc2Cl)cc1` [Example 45, N-(6-(6-chloro-5-(((4-methoxyphenyl)sulfonyl)amino)-3-pyridinyl)-2-quinolinyl)acetamide], for which the results for the IC50 (at PI3Kα [1]; in experiment [2]; on PI3Kβ) were 0.0192 µM, 0.0646 µM and 0.0597 µM, respectively.
On to `CS(=O)(=O)Nc1cc(-c2ccc3ncccc3c2)cnc1Cl` [Example 12, N-(2-chloro-5-(6-quinolinyl)-3-pyridinyl)methanesulfonamide], for which the results for the IC50 (at PI3Kα [1]; in experiment [2]; at PI3Kβ) were 0.0689 µM, 2.65 µM and 0.365 µM, respectively.
As to `O=S(=O)(Nc1cc(-c2ccc3nccc(N4CCC(O)C4)c3c2)cnc1Cl)c1ccc(F)cc1` (stereo not shown) [Example 26, N-(2-chloro-5-(4-(3-hydroxy-1-pyrrolidinyl)-6-quinolinyl)-3-pyridinyl)-4-fluorobenzenesulfonamide], the figures for the IC50 (at PI3Kα [1]; in experiment [2]; against PI3Kβ) were 0.0111 µM, 2.96 µM and 0.0778 µM, respectively.
On to `O=S(=O)(Nc1cc(-c2ccc3ncc(NCC4CCCNC4)nc3c2)cnc1Cl)c1ccc(F)cc1` (stereo not shown) [Example 74, N-(2-chloro-5-(3-((3-piperidinylmethyl)amino)-6-quinoxalinyl)-3-pyridinyl)-4-fluorobenzenesulfonamide], for which the values for the IC50 (at PI3Kα [1]; in experiment [2]; against PI3Kβ) were 0.0192 µM, 2.63 µM and 0.0463 µM, respectively.
For the compound `O=C1COc2ccc(-c3cnc(Cl)c(NS(=O)(=O)c4ccc(F)cc4)c3)cc2N1` [Example 129, N-(2-Chloro-5-(3-oxo-3,4-dihydro-2H-benzo[b][1,4]oxazin-6-yl)pyridin-3-yl)-4-fluorobenzenesulfonamide], on PI3Kα [3], affinity was put at a Ki of 0.0858 µM.
Turning to `COc1cnc2ccc(-c3cnc(Cl)c(NS(C)(=O)=O)c3)cc2c1` [Example 10, N-(2-chloro-5-(3-methoxy-6-quinolinyl)-3-pyridinyl)methanesulfonamide], the IC50 on PI3Kα [1] was found to be 0.0424 µM; in experiment [2], 0.348 µM; against PI3Kβ it was 0.166 µM.
For the compound `O=S(=O)(Nc1cc(-c2ccc3ncc(N4CCC(F)(F)CC4)nc3c2)cnc1Cl)c1ccc(F)cc1` [Example 58, N-(2-chloro-5-(3-(4,4-difluoro-1-piperidinyl)-6-quinoxalinyl)-3-pyridinyl)-4-fluorobenzenesulfonamide], the IC50 is 0.0034 µM on PI3Kα [1], 0.0635 µM in experiment [2] and 0.0824 µM on PI3Kβ.
The corresponding values for `O=S(=O)(Nc1cc(-c2ccc3ncc(N4CCNCC4)nc3c2)cnc1Cl)c1ccc(F)cc1` [Example 72, N-(2-chloro-5-(3-(1-piperazinyl)-6-quinoxalinyl)-3-pyridinyl)-4-fluorobenzenesulfonamide] are 0.0049 µM, 0.0168 µM and 0.01 µM.
`COc1ccc(S(=O)(=O)Nc2cc(-c3ccc4ncccc4c3)cnc2Cl)cc1` [Example 47, N-(2-chloro-5-(6-quinolinyl)-3-pyridinyl)-4-methoxybenzenesulfonamide]: the IC50 was determined as 0.0417 µM on PI3Kα [1], 0.526 µM in experiment [2] and 0.0249 µM against PI3Kβ.
Consider `O=S(=O)(Nc1cc(-c2ccnc3cccnc23)cnc1Cl)c1ccc(F)cc1` [Example 42, N-(2-chloro-5-(1,5-naphthyridin-4-yl)-3-pyridinyl)-4-fluorobenzenesulfonamide], for which the IC50 at PI3Kα [1] is 0.0875 µM; in experiment [2], 1.73 µM; at PI3Kβ, 0.62 µM.
